Measured values published in doi:10.1101/2024.10.13.618094 (bioRxiv, 2024).
“Also recorded” adds a separate entry of the source. Blank lines part the entries; values can stand above or below the molecule they belong to. *1 amine or outer side, *2 acyl side, *3 side chain or, on linkers, in order; H or OH if unused. Where a SMILES comes first, the peptide text is derived from it. [ ]: non-standard residue; d: D form. The star is where a group is joined. Pheol(OBn) = c1ccc(COC[C@H](Cc2ccccc2)N*)cc1; Dnp = O=[N+]([O-])c1ccc(*)c([N+](=O)[O-])c1; NH(4-phenylbutyl) = c1ccc(CCCCN*)cc1; Mca = COc1ccc2c(CC(=O)*)cc(=O)oc2c1; X1 = C[C@H](N[*:1])C(=O)C(=O)[*:2]

Experiments:
RHBDL4 [1] = test: 1.5 μM of wild-type RHBDL4 (purified recombinant); conditions: human, room temperature, up to 4 h
recombinant human RHBDL4 = molecular target: T1, recombinant human RHBDL4 (Homo sapiens, UniProt Q8TEB9); test: FRET-based cleavage assay with fluorogenic substrates (Michaelis–Menten kinetics); assay type: biochemical; conditions: pH 8, 37°C, 0.1% DDM, Michaelis–Menten fit, triplicate, average ± SD
T1 construct: The entire RHBDL4 and RHBDL4-S144A cDNAs were subcloned into the pcDNA3.1 vector; 6xHis (C, cleaved yes); made in house; host or cells: Freestyle 293-F cells (transient transfection, pcDNA3.1-HisA)
T1 sequence (Q8TEB9 1-315): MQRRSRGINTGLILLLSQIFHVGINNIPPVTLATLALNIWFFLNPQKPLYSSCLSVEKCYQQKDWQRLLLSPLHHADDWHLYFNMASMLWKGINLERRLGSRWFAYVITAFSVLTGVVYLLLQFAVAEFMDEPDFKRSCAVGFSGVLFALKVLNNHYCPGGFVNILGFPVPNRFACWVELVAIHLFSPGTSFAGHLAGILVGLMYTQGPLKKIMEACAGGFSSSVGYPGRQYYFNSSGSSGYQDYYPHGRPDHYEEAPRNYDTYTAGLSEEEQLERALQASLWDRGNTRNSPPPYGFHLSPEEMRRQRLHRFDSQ
Protocol: We employed a FRET-based assay to determine the activity of RHBDL4. The RHBDL4 proteolytic activity was tested against a suite of fluorescent, internally quenched (IQ) substrates that have been previously used to test the activity of rhomboid protease PARL (Fig. S2A)([Lysyk et al. 2021]). These substrates consist of 7–10-mer peptide sequences flanked by the fluorescent donor group 7-methoxycourmarin (mc) on the N terminus and quencher acceptor group dinitrophenol (dnp) on the C terminus (Fig. 2A) ([Arutyunova et al. 2018]). In general, the donor and acceptor are in proximity within the fluorogenic peptides and show low fluorescence due to internal quenching. Hydrolysis of the peptide bond between the donor and the acceptor leads to physical separation of the FRET pairs and increase in fluorescence, which would be proportional to RHBDL4 protease activity (Fig. 2A).
The reaction setup in our FRET assay enabled the direct determination of Michaelis–Menten kinetic parameters Km and kcat for the cleavage of IQ6, IQ41, and IQ46 by RHBDL4. Our fluorescence reading data were converted to μM/h using the standard calibration curve for all three IQ substrates, and the correction factor for the inner filter effect was applied. We confirmed that purified RHBDL4 followed Michaelis–Menten kinetics with KmIQ6=10.73±2μM , KmIQ41=5.63±2μM , and KmIQ46=7.19±1μM and kcatIQ6=7.33±0.6h^−1 , kcatIQ41=2.41±0.6h^−1 , and kcatIQ46=3.62±0.08h^−1 (Fig. 2B and S2B).
The enzymatic assay was performed as previously described (Arutyunova et al., 2014, [Arutyunova et al., 2018]). […] The FRET-based cleavage assay was conducted in a fluorescence multi-well plate reader (SynergyMx, BioTek, VT, USA). Upon excitation at 320 nm, the emission intensity at 400 nm was recorded for 2 h at minimal intervals under shaking conditions and plotted using the GraphPad PRISM software. The initial velocities were defined as the slopes of the curve of the generated product as a function of time. The plots of the generated product against the corresponding substrate concentration were fitted with the Michaelis–Menten equation. Catalytic parameters were extrapolated using GraphPad PRISM. […] The samples were desalted using C18 tips (Rainin, Columbus, OH, USA), eluted in 80% acetonitrile, and dried down in a vacuum centrifuge prior to mass spectrometry analysis.
All the calculations for Km, Vmax, and Kcat for RHBDL4 and its mutants were performed using GraphPad PRISM.

[2] = molecular target: T2, rhomboid protease RHBDL4, wild type (recombinant, purified) (human) (UniProt Q8TEB9)
T2 sequence: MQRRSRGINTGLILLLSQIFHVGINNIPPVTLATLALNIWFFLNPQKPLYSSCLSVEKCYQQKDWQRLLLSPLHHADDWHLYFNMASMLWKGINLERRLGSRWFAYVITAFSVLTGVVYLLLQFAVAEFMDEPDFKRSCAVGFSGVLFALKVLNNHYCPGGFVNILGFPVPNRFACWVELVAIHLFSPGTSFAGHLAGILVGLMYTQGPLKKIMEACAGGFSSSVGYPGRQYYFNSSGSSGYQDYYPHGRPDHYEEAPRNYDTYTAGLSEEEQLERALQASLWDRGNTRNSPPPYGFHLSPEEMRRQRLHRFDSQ

[3] = system: purified wild-type RHBDL4; test: TAMRA-FP active-site probe competition on purified RHBDL4; assay type: binding, human; conditions: purified RHBDL4, SDS-PAGE, Cy3 fluorescence; compared with inactive RHBDL4-S144A control
Source text: Inhibition of recombinant purified RHBDL4 proteolytic activity by N-substituted peptidyl α-ketoamides. (A) Proteolytic rates of the fluorescent substrate IQ6 by RHBDL4 in the presence of increasing concentrations of the general protease inhibitors, Dicyclocoumarin (DCI), tosyl-phenylalanine-chloromethyl ketone (TPCK) and 4-(2-aminoethyl) benzenesulfonyl fluoride (AEBSF). […] (D) Representative inhibition curve derived from measuring rates of RHBDL4 proteolysis of the fluorescent substrate IQ6 with increasing concentrations of compound 1a. (E) Same as (D), except inhibition curve was derived from using increasing concentrations of compound 1b. […] Reactions were quenched with 1×Laemmli buffer and loaded on 12% SDS-PAGE gel. Post-transfer membranes were visualized using a fluorescence Cy3 filter and by western blotting using an α-RHBDL4 antibody. For (A), (D), and (E), all inhibitors were pre-incubated with RHBDL4 for 1hr and allowed to react with the IQ6 substrate for 2 h. Assays were performed in triplicate, and data points represent the average ± standard deviation.
In vitro inhibition of RHBDL4 activity with TMED7-derived peptidyl α-ketoamides. […] (B) Representative inhibition curve derived from measuring rates of RHBDL4 proteolysis of the fluorescent substrate IQ6 with increasing concentrations of compound 3. (C) Same as (B), except inhibition curve was derived from using increasing concentrations of compound 4. […] Reactions were quenched with 1×Laemmli buffer and loaded on 12% SDS-PAGE gel. Post-transfer membranes were visualized using a fluorescence Cy3 filter and by western blotting using an α-RHBDL4 antibody. […] For (B) and (C), all inhibitors were pre-incubated with RHBDL4 for 1hr and allowed to react with the IQ6 substrate for 2 h. All assays were performed in triplicate, and data points represent the average ± standard deviation.

RHBDL4 [4] = test: 1.5 μM of wild-type RHBDL4 in activity buffer containing 20 mM citrate phosphate pH 8.0, 150 mM NaCl, 20% (v/v) glycerol, and 0.1% (w/v) DDM; conditions: human, 37°C, up to 2 h
[5] = system: RHBDL4-GFP in ER-enriched microsomes from HEK293T cells; test: TAMRA-FP competition label assay in ER-enriched microsomes; assay type: binding, human; conditions: 100 μM compound, preincubated 1 h at 37°C; 500 nM TAMRA-FP for 2 h at 37°C; immunoprecipitation, Cy3 fluorescence
Protocol: We aimed to investigate our RHBDL4 inhibitors in a more physiological context. […] To achieve this, we prepared ER-enriched microsomes from HEK293T cells transfected with RHBDL4-GFP, then pre-incubated microsomes with 100 μM of each compound, before TAMRA-FP was added to the microsomal fractions. RHBDL4-GFP was immunoprecipitated and visualized for TAMRA-FP fluorescence signal and western blotting. […] We surmise that the peptidyl α-ketoamides may have low membrane penetrability, making them weak inhibitors in microsome and cell-based assays. Further refinement is needed to design peptidyl α-ketoamides that effectively penetrate lipids and inhibit RHBDL4 activity in its native context.
Figure 6. RHBDL4 inhibition studies in ER-enriched microsomes ER-enriched microsomes were preincubated with 100 μM of compounds or DMSO vehicle control followed by addition of 500 nM of TAMRA-FP serine hydrolase probe. […] TAMRA-FP labeling was analyzed via Cy3 filter followed by western blotting using α-GFP antibody.
ER-enriched microsomes were obtained by hypotonic swelling and centrifugation from Hek293T cells 24 h after transfection. […] TAMRA-FP-labelling was analyzed in the wet gel with a green light source (535 nm) and a Cy3 filter by detecting fluorescence emission using ImageQuant 800 Fluor CCD imager (Cytiva) followed by western blotting using a α-GFP antibody (Roche).

[6] = molecular target: T3, rhomboid protease RHBDL4, wild type (recombinant, purified) (human, UniProt Q8TEB9 1-315); test: cell-based or functional assay
T3 sequence (looked up): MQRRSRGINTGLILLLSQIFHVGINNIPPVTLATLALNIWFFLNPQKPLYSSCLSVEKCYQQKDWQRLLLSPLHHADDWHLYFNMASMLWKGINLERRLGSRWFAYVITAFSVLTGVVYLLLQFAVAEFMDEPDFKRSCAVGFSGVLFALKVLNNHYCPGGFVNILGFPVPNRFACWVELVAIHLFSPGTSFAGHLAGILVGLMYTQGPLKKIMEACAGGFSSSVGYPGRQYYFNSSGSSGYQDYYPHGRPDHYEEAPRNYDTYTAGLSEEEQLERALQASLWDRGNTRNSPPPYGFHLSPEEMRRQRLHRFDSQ

Molecule: mca-RPPGFSAFK(dnp)
- cleaved bond (RHBDL4 [1]): Ala-Phe, 4 h; also recorded: Ser-Ala, 4 h

Molecule: peptidyl α-ketoamide compound 1b (Ac-VRHA-CONH-CH(Bn)-CH2OBn) (peptide)
- IC50 of inhibition of RHBDL4 proteolysis of the fluorescent substrate IQ6 (in vitro FRET-based cleavage assay; 1 h pre-incubation, 2 h reaction) [2]: 6.1 µM

Molecule: peptidyl α-ketoamide compound 1a (Ac-VRHA-CONH-CH(Bn)-CH2OBn) (peptide)
- IC50 of inhibition of RHBDL4 proteolysis of the fluorescent substrate IQ6 (in vitro FRET-based cleavage assay; 1 h pre-incubation, 2 h reaction) [2]: 2.31 µM

Molecule: Ac-QMESA-4mc [KSp207, TMED7-derived fluorescent substrate Ac-QMESA-4mc]
- Km (recombinant human RHBDL4): 3.09 ± 1 µM

Molecule: CC(=O)N[C@H](C(=O)N[C@@H](CCCNC(=N)N)C(=O)NC(Cc1c[nH]cn1)C(=O)N[C@@H](C)C(=O)C(=O)N[C@H](COCc1ccccc1)Cc1ccccc1)C(C)C (some centres unmarked) [Compound 1a]
- Competition with TAMRA-FP probe for the RHBDL4 catalytic site (fluorescent signal) [3]: significant reduction of fluorescent signal

Molecule: mca-RPKPYAvWMK(dnp)
- not cleaved (RHBDL4 [4]): did not observe any RHBDL4-catalyzed activity

Molecule: mca-AVFLSAVAG(dnp)
- not cleaved (RHBDL4 [4]): did not observe any RHBDL4-catalyzed activity

Molecule: CSCC[C@H](NC(=O)[C@H](CCC(N)=O)NC(C)=O)C(=O)N[C@@H](CCC(=O)O)C(=O)N[C@@H](CO)C(=O)N[C@@H](C)C(=O)C(=O)NCCCCc1ccccc1 [Compound 3] (Ac-QMES[X1]-{NH(4-phenylbutyl)})
- Effect on TAMRA-FP labeling of RHBDL4-GFP in microsomes [5]: reduced
- Competition with TAMRA-FP probe for the RHBDL4 catalytic site (fluorescent signal) [3]: reduction in overall fluorescent signal

Molecule: CSCC[C@H](NC(=O)[C@H](CCC(N)=O)NC(C)=O)C(=O)N[C@@H](CCC(=O)O)C(=O)N[C@@H](CO)C(=O)N[C@@H](C)C(=O)C(=O)N[C@H](COCc1ccccc1)Cc1ccccc1 [Compound 4] (Ac-QMES[X1]-{Pheol(OBn)})
- Effect on TAMRA-FP labeling of RHBDL4-GFP in microsomes [5]: reduced
- Competition with TAMRA-FP probe for the RHBDL4 catalytic site (fluorescent signal) [3]: reduction in overall fluorescent signal

Molecule: Ac-QMESA-{CONH‑CH(Bn)‑CH2OBn} (also: C-terminal α-ketoamide) [peptidyl α-ketoamide compound 4 (Ac-QMESA-CONH-CH(Bn)-CH2OBn)]
- IC50 of inhibition of RHBDL4 proteolysis of the fluorescent substrate IQ6 (in vitro FRET-based cleavage assay; 1 h pre-incubation, 2 h reaction) [6]: 0.085 µM

Molecule: Ac-QMESA-{CONH‑(CH2)4‑Ph} (also: C-terminal α-ketoamide) [peptidyl α-ketoamide compound 3 (Ac-QMESA-CONH-(CH2)4-Ph)]
- IC50 of inhibition of RHBDL4 proteolysis of the fluorescent substrate IQ6 (in vitro FRET-based cleavage assay; 1 h pre-incubation, 2 h reaction) [6]: 0.054 µM

Molecule: Ac-PGFSA-{α‑ketoamide ‑CONH‑(CH2)4‑Ph} [peptidyl α-ketoamide compound 2 (Ac-PGFSA-CONH-(CH2)4-Ph)]
- IC50 of inhibition of RHBDL4 activity (in vitro FRET-based cleavage assay) [2]: 3.4 µM

Second part, the molecule after the results:

- Km (recombinant human RHBDL4): 10.7 ± 2 µM
Molecule: Mca-Arg-Pro-Pro-Gly-Phe-Ser-Ala-Phe-Lys (DNP)-OH (Mca-RPPGFSAFK(Dnp)-OH; SMILES COc1ccc2c(CC(=O)N[C@@H](CCCNC(=N)N)C(=O)N3CCC[C@H]3C(=O)N3CCC[C@H]3C(=O)NCC(=O)N[C@@H](Cc3ccccc3)C(=O)N[C@@H](CO)C(=O)N[C@@H](C)C(=O)N[C@@H](Cc3ccccc3)C(=O)N[C@@H](CCCCNc3ccc([N+](=O)[O-])cc3[N+](=O)[O-])C(=O)O)cc(=O)oc2c1) [IQ6, fluorescent internally quenched substrate mca-…(dnp)]

- Km (recombinant human RHBDL4): 5.63 ± 2 µM
Molecule: mca-FVTKGK(dnp) [IQ41, fluorescent internally quenched substrate mca-FVTKGK(dnp)]

- Km (recombinant human RHBDL4): 7.19 ± 1 µM
Molecule: mca-FLVRGK(dnp) [IQ46, fluorescent internally quenched substrate mca-FLVRGK(dnp)]
